Experimental findings from patent US11666642B2, “PDE5 compositions and methods for immunotherapy” (Obsidian Therapeutics, Inc., priority 2017, dated 2023) are described below.

Holding throughout (type): cell-based, human
The subject of experiment [1] is hPDE5 mutants fused to GFP in HCT116 cells. Nature of the experiment: Sildenafil dose response of combination mutants, MFI by FACS. The note with it: for MFI / SR: 24 hours. How it is done: Mean fluorescence intensity (MFI) was measured by FACS. Parental HCT116 and cells expressing OT-hPDE5N-019 wildtype construct were also included as controls. […] The destabilizing mutation coefficient ratio was calculated as the fold change in GFP intensity in the hPDE5 mutant constructs compared to the hPDE5 wildtype construct (OT-hPDE5N-019) in the absence of the ligand. Destabilizing mutation coefficient ratios less than 1 are desirable. Stabilization ratios greater than 1 are desired in DDs.
(In general: A flow cytometer gives signals particle by particle.)

The test system is the same in experiment [2]. Nature of the experiment: Tadalafil dose response of combination mutants, MFI by FACS. Here is the method:
The response of hPDE5 combination mutants to increasing doses of Tadalafil was tested. HCT116 cells transduced with hPDE5 constructs were treated with Tadalafil for 24 hours at doses ranging from 0.14 to 100 μM. Mean fluorescence intensity (MFI) was measured by FACS. Parental HCT116 and cells expressing OT-hPDE5N-019 comprising hPDE5 wildtype construct were also included as controls. The response of the combination mutants to Tadalafil was compared to the response of the single mutant construct OT-hPDE5N-020. The stabilization ratio (SR) was calculated as the fold change in GFP intensity in Tadalafil treated samples compared to treatment with DMSO (i.e. in the absence of ligand) with the same construct. The destabilizing mutation coefficient was calculated as the fold change in GFP intensity in the hPDE5 mutant constructs compared to the hPDE5 wildtype construct (OT-hPDE5N-0019) in the absence of the ligand. Destabilizing mutation coefficient less than 1 are desirable. Stabilization ratios greater than 1 are desired in DDs.

Experiment [3] shares this test system. Nature of the experiment: Vardenafil dose response 48 hours, fold change in GFP MFI over DMSO. The settings on record: 0.1 and 0.3 micro molar. How it is done:
Combination mutants were generated as described in Example 9. […] Mean fluorescence intensity (MFI) of GFP was measured by FACS.

“OT-hPDE5N-020: construct consisting of E535-Q860 amino acids of hPDE5 with the R732L mutant, SG linker, AcGFP; single mutant construct”: the MFI in experiment [1] (DMSO, HCT116) worked out at 6172; in experiment [1] (Sildenafil 0.04 μM), 5299; in experiment [1] (Sildenafil 0.12 μM) it was 6441; in experiment [1] (Sildenafil 0.37 μM), 12739; in experiment [1] (Sildenafil 1.11 μM) it was 15952; in experiment [1] (Sildenafil 3.33 μM) it was 23549. For the same substance, the MFI turned out to be 27693 in experiment [1] (Sildenafil 10 μM); 47992 in experiment [1] (Sildenafil 30 μM); 3806 in experiment [2] (DMSO, 24 hours, HCT116). Also, the SR in experiment [1] (Sildenafil 0.04 μM vs DMSO) was 0.86; in experiment [1] (Sildenafil 0.12 μM vs DMSO) it was 1.04; in experiment [1] (Sildenafil 0.37 μM vs DMSO), 2.06; in experiment [1] (Sildenafil 1.11 μM vs DMSO), 2.58; in experiment [1] (Sildenafil 3.33 μM vs DMSO) it was 3.82; in experiment [1] (Sildenafil 10 μM vs DMSO) it was 4.49. The SR in experiment [1] (Sildenafil 30 μM vs DMSO) is listed as 7.78. Besides, the “destabilizing mutation co-efficient ratio” value in experiment [1] (Sildenafil dose response experiment, absence of ligand, vs OT-hPDE5N-019) stood at 0.1. Also, in experiment [2] (Tadalafil dose response experiment, absence of ligand, vs OT-hPDE5N-019), the destabilizing mutation coefficient is reported as 0.1. Moreover, the “ligand dependent stabilization (fold change in MFI over DMSO) at lower doses of Vardenafil” value in experiment [3] was “observed at lower doses i.e. 0.1 and 0.3 micro molar concentrations of Vardenafil”.
